These results are taken from patent US20230210902A1, “SARS-COV-2-SPECIFIC T CELLS” (priority 2020, published 2023).

SMILES strings stand for the structures.

For the series, the system named is CTLs from Cas9 control and NR3C1 KO groups. Nature of the series: Annexin V apoptosis assay with dexamethasone. To be noted: 200 µM, 72 hours. The format is cell-based, human. As to the method: Annexin V apoptosis assay was performed to evaluate the effect of dexamethasone on the viability of CTLs from Cas9 control and NR3C1 KO groups. CTLs from both groups were treated with 200 µM dexamethasone (Sigma) for 72 hours. Cells were then collected, washed with annexin V buffer, and stained with annexin V (V500; BD Biosciences) and live/dead viability dye (efluor 660; Invitrogen) in addition to CD3 APC Cy7 (Biolegend, Clone HIT3A), CD4 APC (E Biosciences, Clone SK3), and CD8 PerCP Cy5.5 (Biolegend, Clone SK1). The proportion of apoptotic (positive for annexin V) and dead CTLs (positive for live/dead stain) was determined by flow cytometry.

`C[C@@H]1C[C@H]2[C@@H]3CCC4=CC(=O)C=C[C@]4(C)[C@@]3(F)[C@@H](O)C[C@]2(C)[C@@]1(O)C(=O)CO` [Dex, dexamethasone]: the “viability of control Cas9 COVID-19 CTLs” value is on record as “absence of viable cells”.
